Measurements: patent US12492169B2, “Aminopyridine compound and application thereof” (priority 2020, dated 2025)
≈ marks a conversion by molar mass, not a printed value.

System: Cryptococcus neoformans H99 ATCC 208821
Assay: Minimum inhibitory concentration (MIC) test against fungi
Assay type: cell-based
Settings: Cryptococcus neoformans, ATCC208821, 72 h, ≥50% growth inhibition by eye, three independent experiments, read-out: MIC
Protocol: To test the minimum inhibitory concentration (MIC) and minimum effective concentration (MEC) of the drug against fungi.
Cryptococcus neoformans H99 ATCC 208821;
Test medium: RPMI1640 (containing 0.165 M MOPS, pH7.0)
On the day of the experiment, the compound in the bottle was dissolved in 100% DMSO to a stock solution concentration of 6.24 mg/mL. Then, the mixture was 10-fold diluted with DMSO to 0.624 mg/mL for use.
A 2-fold gradient dilution of the compound solution (0.624 mg/mL) was performed using DMSO on a 96-microwell plate (V-bottom) to obtain 100× working solutions (wells 1 to 11). 624, 312, 156, 78, 39, 20, 10, 5, 2.5, 1.25, 0.625 μg/mL. 100% DMSO was used as a positive control (well 12). This was the compound stock plate.
Cryptococcus neoformans H99 ATCC 208821 frozen at −80° C. was streaked on SDA plates and incubated aerobically in a 35±2° C. incubator for 48 hours.
On the day of the experiment, for strains Candida parapsilosis ATCC 22019, Candida albicans ATCC MYA-2876; Candida albicans WX-CA009; Candida glabrata ATCC15126; Candida tropicalis ATCC 750 and Cryptococcus neoformans H99 ATCC 208821, the plates were taken out and the clones on the plates were picked, suspended in normal saline, and then the turbidity of the fungal suspension was adjusted to OD600=0.2 using a turbidimeter. The fungal suspension contained about 3.0×10^6 CFU/mL. Then the turbidity-adjusted fungal suspension was diluted with a test medium to a concentration of about 3.0×10^3 CFU/mL. This was the inoculum.
2 μL of 100× working solution from the compound stock plate (prepared in 3.1) was transferred to a round-bottomed 96-well plate (containing 98 μL of test medium), and then 100 μL of fungus inoculum (prepared in 3.2) was added to each well to obtain a MIC test plate. Therefore, the final test concentrations of the compounds were 6.24, 3.12, 1.56, 0.78, 0.39, 0.20, 0.10, 0.05, 0.025, 0.0125, 0.006 μg/mL. 1% DMSO was used as a growth control.
For Cryptococcus neoformans H99 ATCC 208821, all test plates were incubated aerobically in a 35±2° C. incubator for 72 hours.
After incubation, according to the criteria in Table 1 below, the test plate was observed by eye or microscope to determine the MIC (g/mL) and MEC (g/mL) of the test compound against yeast and mold.

## Nc1ccc(C#CCc2ccc(COc3ccccn3)cc2)cn1 [WX004]
  MIC: 1.56 µg/mL (≈ 4.95 µM)
